We go through four compounds from PMC5071162 (ACS chemical neuroscience, 2016).

pEC50: −log10 of the molar value.

For one data set, the system named is GPR88. The note with it: HTRF cAMP assay; ref 13 (Bi et al.); cited from earlier work. A general note: TR-FRET usually uses a lanthanide donor and a delayed reading to cut background.
The next data set deals with P-glycoprotein. The note with it: reported; cited from earlier work.
In another data set the target is human GPR88 (Homo sapiens, UniProt Q9GZN0). Briefly: Lance cAMP assay using stable PPLS-HA-GPR88 CHO cells. The format is cell-based. The note with it: EC50.
human GPR88, sequence (Q9GZN0 whole entry): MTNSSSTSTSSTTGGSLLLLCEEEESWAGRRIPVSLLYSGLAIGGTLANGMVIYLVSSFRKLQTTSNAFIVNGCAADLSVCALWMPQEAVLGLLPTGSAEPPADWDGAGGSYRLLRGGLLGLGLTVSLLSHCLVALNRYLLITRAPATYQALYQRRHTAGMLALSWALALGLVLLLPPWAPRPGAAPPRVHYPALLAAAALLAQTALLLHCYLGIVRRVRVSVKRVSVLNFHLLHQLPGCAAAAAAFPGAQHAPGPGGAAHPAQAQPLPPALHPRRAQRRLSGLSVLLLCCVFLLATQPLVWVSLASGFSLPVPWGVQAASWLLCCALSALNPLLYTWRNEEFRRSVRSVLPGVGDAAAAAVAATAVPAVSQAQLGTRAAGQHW

Turning to `CCCc1ccc(-c2ccc(N(C[C@@H](N)[C@@H](C)CC)C(=O)[C@@H]3C[C@H]3c3ccccn3)cc2)cc1` [compound 2], in the data set on GPR88, the pEC50 (usually the EC50 on a negative log10 scale, so that one unit is a factor of ten) was […].

`CCCc1ccc(-c2ccc(N(C[C@@H](N)[C@@H](C)CC)C(=O)[C@@H]3C[C@H]3c3ccccn3)cc2)cc1` (relative stereo) [compound 1, (1R*,2R*)-2-(pyridin-2-yl)-cyclopropanecarboxylic acid ((2S,3S)-2-amino-3-methylpentyl)-(4′-propylbiphenyl-4-yl)-amide]: the P-glycoprotein substrate entry with P-glycoprotein was “P-glycoprotein substrate”.

Consider `CC[C@H](C)[C@H](N)CN(C(=O)[C@@H]1C[C@H]1c1ccccn1)c1ccc(-c2ccc(OC(F)(F)F)cc2)cc1` (relative stereo) [5k, (1R*,2R*)-2-(Pyridin-2-yl)cyclopropanecarboxylic Acid [(2S,3S)-2-Amino-3-methylpentyl]-(4′-trifluoromethoxybiphenyl-4-yl)amide], for which the pEC50 on human GPR88 was 6.86.

`CC[C@H](C)[C@H](N)CN(C(=O)[C@@H]1C[C@H]1c1ccccn1)c1ccc(-c2ccc(-c3ccccc3)cc2)cc1` (relative stereo) [5i, (1R*,2R*)-2-(Pyridin-2-yl)cyclopropanecarboxylic Acid [(2S,3S)-2-Amino-3-methylpentyl]-(4′-phenylbiphenyl-4-yl)amide] gave a pEC50 at human GPR88 of 6.54.
